Values joined by “and” are separate entries in the source; they are usually repeats but may differ in a detail not shown here. Equal entries are not always repeated.
Tests used:
Type in all cases: physicochemical
[1] = Critical micelle concentration (CMC) from surface tension versus concentration, Wilhelmy plate method; conditions: for surface tension at the CMC: from plot of surface tension versus concentration; for surface tension at the CMC / minimum surface tension that can be reached (plateau / asymptotic value): pH=7; for minimum surface tension that can be reached (plateau / asymptotic value) / critical micelle concentration (CMC): in water
Description: As surfactant concentration increases, surface tension decreases. Once the surface is completely overlaid with surfactant molecules, micelles begin to form. This point represents the CMC, as well as the minimum surface tension. Further addition of surfactant will not further affect the surface tension. CMC may therefore be measured by observing the change in surface tension as a function of surfactant concentration. One such method for measuring this value is the Wilhemy plate method. A Wilhelmy plate is usually a thin iridium-platinum plate attached to a balance by a wire and placed perpendicularly to the air-liquid interface. The balance is used to measure the force exerted on the plate by wetting. This value is then used to calculate the surface tension (γ) according to Equation 1: γ=F/I cos θ Equation 1: wherein I is equal to the wetted perimeter (2w+2d, in which w and d are the […], respectively) and cos θ, the contact angle between the liquid and the plate, is assumed to be 0 in the absence of an extant literature value.
(§1) Nuclear magnetic resonance (NMR) spectroscopy was performed on a Bruker 500 MHz spectrometer. The critical micelle concentration (CMC) was determined by the Wilhelmy plate method at 23° C. with a tensiometer (DCAT 11, DataPhysics Instruments GmbH) equipped with a Pt—Ir plate. Dynamic surface tension was determined with a bubble pressure tensiometer (Krüss BP100, Krüss GmbH), at 23° C. Contact angle was determined with the optical contact angle goniometer (OCA 15 Pro, DataPhysics GmbH) equipped with a digital camera.
The critical micelle concentration (CMC) of the 6-((2-butyloctyl)oxy)-N,N,N-trimethyl-6-oxohexan-1-aminium iodide from Example 1a was tested. […] From the plot of the results, the surface tension at the CMC is equal to or less than about 27 mN/m.
The critical micelle concentration (CMC) of the 6-((2-butyloctyl)oxy)-N,N-dimethyl-6-oxohexan-1-aminium 4-methylbenzenesulfonate from Example 2a was tested. From the change in surface tension with concentration in water, the CMC was determined to be about 0.97 mmol. The plateau value of minimum surface tension that can be reached by this surfactant is about 27 mN/m, namely 27 mN/m±3 mN/m. […] From the plot of the results, the surface tension at the CMC is equal to or less than about 30 mN/m.

[2] = Dynamic surface tension, bubble pressure tensiometer; conditions: 23° C.
Method: One method by which dynamic surface tension is measured relies upon a bubble pressure tensiometer. This device measures the maximum internal pressure of a gas bubble that is formed in a liquid by means of a capillary. The measured value corresponds to the surface tension at a certain surface age, the time from the start of the bubble formation to the occurrence of the pressure maximum. The dependence of surface tension on surface age can be measured by varying the speed at which bubbles are produced.
as §1
The dynamic surface tension of the 6-((2-butyloctyl)oxy)-N,N-dimethyl-6-oxohexan-1-aminium 4-methylbenzenesulfonate from Example 2a was determined with a bubble pressure tensiometer which measures the change of surface tension of a freshly created air-water interface with time. FIG. 2B presents a plot of the surface tension versus time, showing that surface tension in the time interval between 10 and 100 ms drops rapidly from about 46 mN/m to about 30 mN/m. In the time interval from 100 to 8,000 ms, the surface tension drops slowly from 30 mN/m to about 27 mN/m, approaching asymptotically the saturation value of the surface tension at the CMC.

[3] = Wetting properties: contact angle on solid substrates, optical contact angle goniometer; conditions: 10x CMC
Description: Surface-active compounds may also be assessed by their wetting ability on solid substrates as measured by the contact angle. When a liquid droplet comes in contact with a solid surface in a third medium, such as air, a three-phase line forms among the liquid, the gas and the solid. The angle between the surface tension unit vector, acting at the three-phase line and tangent at the liquid droplet, and the surface is described as the contact angle. The contact angle (also known as wetting angle) is a measure of the wettability of a solid by a liquid. In the case of complete wetting, the liquid is completely spread over the solid and the contact angle is 0°. Wetting properties are typically measured for a given compound at the concentration of 1-10×CMC, however, it is not a property that is concentration-dependent therefore measurements of wetting properties can be measured at concentrations that are higher or lower.
In one method, an optical contact angle goniometer may be used to measure the contact angle. This device uses a digital camera and software to extract the contact angle by analyze the contour shape of a sessile droplet of liquid on a surface.
as §1
In addition to surface tension and surface dynamics, the wetting properties of the 6-((2-butyloctyl)oxy)-N,N-dimethyl-6-oxohexan-1-aminium 4-methylbenzenesulfonate from Example 2a were tested on various surfaces.

[4] = substrate Polyethylene terephthalate

critical micelle concentration (CMC), not clearly determined up to this concentration ([1]; 23° C., pH=7, Wilhelmy plate) [mg/mL]	surface tension at the CMC [1] [mN/m]	minimum surface tension that can be reached (plateau / asymptotic value) ([1]; 23° C.)	critical micelle concentration (CMC) ([1]; 23° C., pH=7, Wilhelmy plate)	dynamic surface tension ([2]; surface age 10 ms)	dynamic surface tension ([2]; surface age 100 ms)	dynamic surface tension ([2]; surface age 8,000 ms)	CA of Surfactant (contact angle) ([3]; substrate Nylon) [°]	CA of Surfactant (contact angle) [3, 4] [°]	CA of Surfactant (contact angle) ([3]; substrate Polyethylene-HD)	CA of Surfactant (contact angle) ([3]; substrate Teflon)	dynamic surface tension ([2]; surface age 1,000 ms)	surface tension ([1]; at a concentration of about 1.0 mmol or greater) [mN/m]	SMILES
> 10	≤ 27	about 27 mN/m											CCCCCCC(CCCC)COC(=O)CCCCC[N+](C)(C)C.[I-] (stereo not shown) [Example 1a, 6-((2-butyloctyl)oxy)-N,N,N-trimethyl-6-oxohexan-1-aminium iodide]
		about 29 mN/m											CCCCCCC(CCCC)COC(=O)CCCCCN(C)C.Cl (stereo not shown) [Example 3a, 6-((2-butyloctyl)oxy)-N,N-dimethyl-6-oxohexan-1-aminium chloride]
	≤ 28	about 28 mN/m	about 0.29 mmol	about 60 mN/m		about 28 mN/m	38.5	9.2	31.6 ° and 31.9 °	41.5 ° and 41.0 °	about 30 mN/m		CCCCCCC(CCCC)COC(=O)CCCCC[N+](C)(C)[O-] (stereo not shown) [Example 5a, 2-butyloctyl 6-(dimethylamino)hexanoate N-oxide]
	≤ 30	about 27 mN/m	about 0.15 mmol	about 69 mN/m		about 29 mN/m	24.5	20.1	25.8 °	48.7 °	about 49 mN/m		CCCCCCC(CCCC)COC(=O)CCCCCN.Cl (stereo not shown) [Example 6a, 6-((2-butyloctyl)oxy)-6-oxohexan-1-aminium chloride]

Further lines, the compound ahead of its results:

SMILES	critical micelle concentration (CMC), not clearly determined up to this concentration ([1]; 23° C., pH=7, Wilhelmy plate) [mg/mL]	surface tension at the CMC [1] [mN/m]	minimum surface tension that can be reached (plateau / asymptotic value) ([1]; 23° C.)	critical micelle concentration (CMC) ([1]; 23° C., pH=7, Wilhelmy plate)	dynamic surface tension ([2]; surface age 10 ms)	dynamic surface tension ([2]; surface age 100 ms)	dynamic surface tension ([2]; surface age 8,000 ms)	CA of Surfactant (contact angle) ([3]; substrate Nylon) [°]	CA of Surfactant (contact angle) [3, 4] [°]	CA of Surfactant (contact angle) ([3]; substrate Polyethylene-HD)	CA of Surfactant (contact angle) ([3]; substrate Teflon)	dynamic surface tension ([2]; surface age 1,000 ms)	surface tension ([1]; at a concentration of about 1.0 mmol or greater) [mN/m]
CCCCCCC(CCCC)COC(=O)CCCCCN(C)C.Cc1ccc(S(=O)(=O)O)cc1 (stereo not shown) [Example 2a, 6-((2-butyloctyl)oxy)-N,N-dimethyl-6-oxohexan-1-aminium 4-methylbenzenesulfonate]		≤ 30	about 27 mN/m	about 0.97 mmol	about 46 mN/m	about 30 mN/m	about 27 mN/m	13.5	7.7	24.3 °	48.2 °		
CCCCCCC(CCCC)COC(=O)CCCCC[N+](C)(C)CCCCS(=O)(=O)[O-] (stereo not shown) [Example 4a, 4-((6-((2-butyloctyl)oxy)-6-oxohexyl)dimethylammonio)butane-1-sulfonate]		≤ 32	about 32 mN/m	about 0.54 mmol	about 66 mN/m	about 36 mN/m	about 32 mN/m	28.7	29.8	44.4 °	62.2 °		
CCCCCCC(CCCC)COC(=O)CCCCCN.Cc1ccc(S(=O)(=O)O)cc1 (stereo not shown) [Example 7a, 6-((2-butyloctyl)oxy)-6-oxohexan-1-aminium 4-methylbenzenesulfonate]		≤ 30	about 27 mN/m	about 2.12 mmol	about 46 mN/m	about 30 mN/m	about 27 mN/m	12.6	13.2	14.6 °	49.4 °		≤ 28.5

Source: patent publication US11857515B2, “Branched amino acid surfactants for use in healthcare products” (AdvanSix Resins & Chemicals LLC, priority 2020, dated 2024)
